Source: US7399770B2, “Thieno-imino acid derivatives for use as matrix metalloproteinase inhibitors” (SANOFI-AVENTIS Deutschland GmbH, priority 2004, dated 2008)

What was measured:
Assay type in all cases: biochemical
Conditions in all cases: fluorogenic substrate, pH 7.5
[1] = target: T1, catalytic domain of human collagenase-1 (MMP-1) (Homo sapiens, UniProt P03956); test: enzymatic activity of the catalytic domain of human collagenase-1 (MMP-1)
T1 construct: Determining the enzymatic activity of the catalytic domain of human collagenase-1 (MMP-1); purchased Biocol, Potsdam MMP1
T1 sequence (P03956 100-269 limits assumed): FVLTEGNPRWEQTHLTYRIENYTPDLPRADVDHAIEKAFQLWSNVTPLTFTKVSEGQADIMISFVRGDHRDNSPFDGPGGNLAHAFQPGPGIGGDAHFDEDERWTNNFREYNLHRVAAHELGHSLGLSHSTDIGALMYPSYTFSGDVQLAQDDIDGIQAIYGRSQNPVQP
Protocol: Determining the enzymatic activity of the catalytic domain of human collagenase-1 (MMP-1).
(§1) Activation of the Proenzyme:
2 parts by volume of proenzyme are incubated, at 37° C. for 1 hour, with 1 part by volume of APMA solution. The APMA solution is prepared from a 10 mmol/l solution of p-aminophenylmercuric acetate in 0.1 mmol/l NaOH by diluting with 3 parts by volume of Tris/HCl buffer pH 7.5 (see below). The pH is adjusted to between 7.0 and 7.5 by adding 1 mmol/l HCl. After the enzyme has been activated, it is diluted with the Tris/HCl buffer down to a concentration of 2.5 μg/ml. In order to measure the enzyme activity, 10 μl of enzyme solution are incubated, for 15 minutes, with 10 μl of a 3% (v/v) buffered solution of dimethyl sulfoxide (reaction 1). […]
Both in the case of reaction 1 and in the case of reaction 2, the enzyme reaction is monitored by fluorescence spectroscopy (328 nm (extinction)/393 nm (emission)) after 10 μl of a 3% (v/v) aqueous solution of dimethyl sulfoxide which contains 0.3 mmol of the substrate/l has been added. The enzyme activity is expressed as increase in extinction/minute. The inhibitor effect is calculated as percentage inhibition in accordance with the following formula: % inhibition=100−[(increase in extinction/minute in reaction 2)/(increase in extinction/minute in reaction 1)×100]. […]

[2] = target: T2, catalytic domain of human gelatinase-A (MMP-2) (Homo sapiens, UniProt P08253); test: enzymatic activity of the catalytic domain of human gelatinase-A (MMP-2)
T2 construct: Determining the enzymatic activity of the catalytic domain of human gelatinase-A (MMP-2); purchased INVITEK, Berlin 30 100 602
T2 sequence (P08253 110-465 limits assumed): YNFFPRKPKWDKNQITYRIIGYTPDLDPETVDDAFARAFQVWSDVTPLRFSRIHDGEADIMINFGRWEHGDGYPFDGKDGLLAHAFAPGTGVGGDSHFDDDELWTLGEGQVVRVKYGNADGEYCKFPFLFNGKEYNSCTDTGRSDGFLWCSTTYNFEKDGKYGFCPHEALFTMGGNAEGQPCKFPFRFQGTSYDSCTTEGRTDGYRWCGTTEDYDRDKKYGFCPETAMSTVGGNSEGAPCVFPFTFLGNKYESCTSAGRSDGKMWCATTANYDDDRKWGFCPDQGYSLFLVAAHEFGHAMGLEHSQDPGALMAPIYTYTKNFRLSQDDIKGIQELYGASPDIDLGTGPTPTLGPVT
Protocol: Determining the enzymatic activity of the catalytic domain of human gelatinase-A (MMP-2).
as §1
2 parts by volume of proenzyme were incubated, at 37° C. for 0.5 hour, with 1 part by volume of APMA solution. The APMA solution was prepared from a 10 mmol/l p-aminophenylmercuric acetate solution in 0.1 mmol/l NaOH by diluting with 3 parts by volume of Tris/HCl buffer pH 7.5 (see below). The pH was adjusted to between 7.0 and 7.5 by adding 1 mmol HCl/l. After the enzyme had been activated, it was diluted with the Tris/HCl buffer down to a concentration of 0.83 μg/ml. In order to measure the enzyme activity, 10 μl of enzyme solution were incubated, for 15 minutes, with 10 μl of a 3% (v/v) buffered solution of dimethyl sulfoxide (reaction 1). […]
Both in the case of reaction 1 and in the case of reaction 2, the enzyme reaction was monitored by fluorescence spectroscopy (328 nm (extinction)/393 nm (emission)) after 10 μl of a 3% (v/v) aqueous solution of dimethyl sulfoxide containing 0.3 mmol of the substrate/l had been added.
(§2) The enzyme activity was expressed as increase in extinction/minute.
(§3) The inhibitor effect was calculated as a percentage inhibition in accordance with the following formula: % inhibition=100−[(increase in extinction/minute in reaction 2)/(increase in extinction/minute in reaction 1)×100]. […]

[3] = target: T3, catalytic domain of human stromelysin (MMP-3) (Homo sapiens, UniProt P08254); test: enzymatic activity of the catalytic domain of human stromelysin (MMP-3)
T3 construct: catalytic domains of human stromelysin (MMP-3) and neutrophil collagenase (MMP-8); made in house
T3 sequence (P08254 100-272 limits assumed): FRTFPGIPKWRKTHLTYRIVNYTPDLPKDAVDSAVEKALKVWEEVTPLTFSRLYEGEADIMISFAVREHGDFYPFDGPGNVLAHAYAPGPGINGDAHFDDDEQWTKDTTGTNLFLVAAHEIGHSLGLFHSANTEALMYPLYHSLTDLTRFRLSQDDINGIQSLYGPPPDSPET
Protocol: (§4) Preparation, and determination of the enzymatic activity, of the catalytic domains of human stromelysin (MMP-3) and neutrophil collagenase (MMP-8).
(§5) The two enzymes, i.e. stromelysin (MMP-3) and neutrophil collagenase (MMP-8), were prepared in accordance with Ye et al. (Biochemistry; 31 (1992) pages 11231-11235). In order to measure the enzyme activity, or the enzyme inhibitor effect, 10 μl of enzyme solution were incubated, for 15 minutes, with 10 μl of a 3% (v/v) buffered solution of dimethyl sulfoxide which contained the enzyme inhibitor, where appropriate. After 10 μl of a 3% (v/v) aqueous solution of dimethyl sulfoxide containing 1 mmol of the substrate/l had been added, the enzyme reaction was monitored by fluorescence spectroscopy (328 nm (ex)/393 nm (em)).
(§6) The enzyme activity is expressed as increase in extinction/minute. The IC50 values listed in table 2 were determined as being those inhibitor concentrations which in each case led to a 50% inhibition of the enzyme.
(§7) The buffer solution contained 0.05% Brij (Sigma, Deisenhofen, Germany) and also 0.1 mol of Tris/HCl/l, 0.1 mol of NaCl/l, 0.01 mol of CaCl2/l and 0.1 mol of piperazine-N,N′-bis[2-ethanesulfonic acid]/l (pH=7.5). […]

[4] = target: T4, catalytic domain of human neutrophil collagenase (MMP-8) (Homo sapiens, UniProt P22894); test: enzymatic activity of the catalytic domain of human neutrophil collagenase (MMP-8)
T4 construct: catalytic domains of human stromelysin (MMP-3) and neutrophil collagenase (MMP-8); made in house
T4 sequence (P22894 100-262 limits assumed): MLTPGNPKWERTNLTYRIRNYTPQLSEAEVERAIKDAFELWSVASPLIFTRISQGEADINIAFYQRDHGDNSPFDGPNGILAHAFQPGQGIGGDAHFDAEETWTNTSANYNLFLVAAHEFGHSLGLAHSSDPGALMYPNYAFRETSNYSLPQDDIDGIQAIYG
Protocol: as §4, §5, §6, §7

[5] = target: T5, catalytic domain of human gelatinase-B (MMP-9) (Homo sapiens, UniProt P14780); test: enzymatic activity of the catalytic domain of human gelatinase-B (MMP-9)
T5 construct: Determining the enzymatic activity of the catalytic domain of human gelatinase-B (MMP-9); purchased Roche, Mannheim 1 758 896
T5 sequence (P14780 107-444 limits assumed): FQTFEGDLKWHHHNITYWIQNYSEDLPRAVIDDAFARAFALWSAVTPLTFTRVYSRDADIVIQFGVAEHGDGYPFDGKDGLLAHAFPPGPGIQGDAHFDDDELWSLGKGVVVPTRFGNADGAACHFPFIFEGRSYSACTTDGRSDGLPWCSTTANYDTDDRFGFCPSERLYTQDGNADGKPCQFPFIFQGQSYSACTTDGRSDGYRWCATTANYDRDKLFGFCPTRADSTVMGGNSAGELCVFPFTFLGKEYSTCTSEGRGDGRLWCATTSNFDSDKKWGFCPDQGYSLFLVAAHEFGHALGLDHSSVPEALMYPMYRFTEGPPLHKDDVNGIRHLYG
Protocol: Determining the enzymatic activity of the catalytic domain of human gelatinase-B (MMP-9).
as §1
2parts by volume of proenzyme were incubated, at 37° C. for 4 hours, with 1 part by volume of APMA solution. The APMA solution was prepared from a 10 mmol/l p-aminophenylmercuric acetate solution in 0.1 mmol/l NaOH by diluting with 3 parts by volume of Tris/HCl buffer, pH 7.5 (see below). The pH was adjusted to between 7.0 and 7.5 by adding 1 mmol/l HCl. After the enzyme had been activated, it was diluted with the Tris/HCl buffer down to a concentration of 4.2 mU/ml.
(§8) In order to measure the enzyme activity, 10 μl of enzyme solution were incubated, for 15 minutes, with 10 μl of a 3% (v/v) buffered solution of dimethyl sulfoxide (reaction 1). […]
Both in the case of reaction 1 and in the case of reaction 2, the enzyme reaction was monitored by fluorescence spectroscopy (328 nm (extinction)/393 nm (emission)) after 10 μl of a 3% (v/v) aqueous solution of dimethyl sulfoxide containing 0.15 mmol of the substrate/l had been added.
as §2, §3

[6] = target: T6, catalytic domain of human collagenase-3 (MMP-13) (Homo sapiens, UniProt P45452); test: enzymatic activity of the catalytic domain of human collagenase-3 (MMP-13)
T6 construct: Determining the enzymatic activity of the catalytic domain of human collagenase-3 (MMP-13); purchased INVITEK, Berlin 30 100 803
Protocol: Determining the enzymatic activity of the catalytic domain of human collagenase-3 (MMP-13).
as §1
2 parts by volume of proenzyme were incubated, at 37° C. for 1.5 hours, with 1 part by volume of APMA solution. The APMA solution was prepared from a 10 mmol/l solution of p-aminophenylmercuric acetate in 0.1 mmol/l NaOH by diluting with 3 parts by volume of Tris/HCl buffer pH 7.5 (see below). The pH was adjusted to between 7.0 and 7.5 by adding 1 mmol/l HCl. After the enzyme had been activated, it was diluted with the Tris/HCl buffer down to a concentration of 1.67 μg/ml.
as §8
Both in the case of reaction 1 and in the case of reaction 2, the enzyme reaction was monitored by fluorescence spectroscopy (328 nm (extinction)/393 nm (emission)) after 10 μl of a 3% (v/v) aqueous solution of dimethyl sulfoxide containing 0.075 mmol of the substrate/l had been added. […]
as §3

IC50 [1]: 700 nM
IC50 [2]: 2.5 nM
IC50 [3]: 70 nM
IC50 [4]: 13 nM
IC50 [5]: 3.5 nM
IC50 [6]: 6.3 nM
Structure (SMILES): O=C(NO)C1c2c(sc3ccccc23)C(O)CN1S(=O)(=O)c1ccc(-c2ccc(Cl)cc2)cc1 (stereo not drawn) [Example 1, 2-(4′-Chlorobiphenyl-4-sulfonyl)-4-hydroxy-1,2,3,4-tetrahydrobenzo[4,5]thieno[3,2-c]pyridine-1-carboxylic acid hydroxyamide]
